In patent US10975116B2, “Methods of treating and preventing gastrointestinal motility disorders using aminosterols” (Enterin, Inc., priority 2013, dated 2021):
“Also recorded” adds a separate entry of the source. Read-outs that look alike come from different tables or passages of the source.

What was measured:
[1] = tested on: lymphoma; test: Oral squalamine in lymphoma, single subject; type: in vivo, human
Protocol: A person with a 2 year history of progressive dementia and weakness presented with a massive cervical, axillary, and inguinal lymphadenopathy, along with malaise, somnolence and pain. […] The skin of their feet was a nonblanching bright pink hue up to the ankle with a scattered brownish purpuric rash. The individual was provided end of life care.
At the end of December 2013, the individual was begun on a daily dose of one 50 mg capsule of squalamine. […] Rash cleared within 3 days. On day 4 after squalamine initiation, a short course of dexamethsone was begun to treat the hypercalcemia, and stimulate appetite. 20 mg (4 days), 16 mg (2 days), 8 mg, 4 mg (2 days), then 2 mg daily. […] Mid-January 2014 weakness on the right, involving arm and leg was noted; a diagnosis of a mild stroke was made. […] A flat left submandibular node was felt of normal size and consistency. […] Squalamine treatment continues.

[2] = tested on: GLP-1; test: GLP-1 release into the blood stream after oral squalamine and lipid/carbohydrate meal (ELISA); type: in vivo, human
Protocol: Enteroendocrine cells, which contain entreric hormones, are known to respond to a variety of stimuli they contact in the intestinal lumen, and release hormones into the submucosa and subsequently into the bloodstream. In particular, GLP-1, the product of the L-cell, is known to have motility effects on the small intestine that resemble those observed after oral administration of squalamine. In this example, a lipid/carbohydrate meal was administered which is known to provoke the release of GLP-1 into the bloodstream. The GLP-1 response of the GI tract to the meal was compared in the presence or absence of squalamine, with blood levels of GLP-1 measured using an ELISA based immunoassay.
• 1. Subject (BMI: […], no medical illness) was fasted overnight • 2. IV catheter 18 gauge implanted in R […] fossa • 3. Blood samples drawn at 9:30 A, 11 A, 11:30 A, 12:30 P, 1:30 P, 2 P, 2:30, 3, 3:30, 4:30, 5:30 • 4. Empty capsule and water at 10:30 A • 5. Lipid/carbohydrate meal (2 slices of white bread, each with 5.5 gms butter) at 2 P • 6. Blood samples: 2 ml into Becton-Dickenson Protease-inhibited Biomarker tubes; 3 ml into standard red top blood collection tubes. • 7. All samples were immediately spun at 3000 rpm×15 and serum or plasma aliquotted into 1.5 ml eppendorfs and then stored at −80° C. Squalamine Response • 1. Subject rested 3 days and re-evaluated 4 days after the Control response • 2. Fasted overnight • 3. IV catheter implanted • 4. Samples drawn at 10, 11, 11:30, 12:30, 1:30, 2:30, 3, 3:30, 4:30, 5:30 • 5. Squalamine capsule, 200 mg at 10:30 A • 6. Bread and butter, 2 P • 7. Blood samples collected and processed as in the Control study
GLP-1 analyses (Total immunoreactive GLP-1): A Millipore ELISA kit was used (Cat #EZGLP1T-36K).

[3] = tested on: gliobastoma; test: Oral squalamine in brain tumor, single subject; type: in vivo, human
Protocol: A person presented with headache and memory loss. […] The tumor was partially resected surgically, followed by local radiation. The subject was placed on a clinical protocol evaluating everolimus and temozolimide.
In mid October 2013, the subject began squalamine capsules with a 100 mg single dose. […] Squalamine treatment continues.

[4] = tested on: intrinsic primary afferent neurons (IPANs) of the colon; test: Patch-clamp of IPANs of the colon, squalamine applied to lumen, intact epithelium; type: cell-based, mouse; conditions: 30 μM, brief puff onto lumen/epithelium
Excerpt: In this experiment the outer adventitial layer of the mouse colon is peeled away exposing the IPANs. Individual IPANs within the myenteric plexus of the wall of the colon are patched using a patch-clamp apparatus. These cells represent the major neuronal population that communicate sensory data from the gut. They synapse with the various nerve networks within the gut that influence muscle and secretory activity, as well as connecting with vagal nerve endings. Administration of squalamine at 30 μM to the lumen (applied via a 50 ms “puff” of solution) leads to a very sustained (10 min) burst of electrical activity (FIG. 3).

[5] = tested on: endometrial cancer; test: Oral squalamine in endometrial cancer, single subject; type: in vivo, human
Protocol: A person presented with abdominal discomfort and the presence of a palpable abdominal mass. […] Surgical removal of the uterus and ovaries was followed by chemotherapy. Subsequently, a large tumor adherent to the distal colon was discovered, along with additional nodes. A colonic resection was performed along with local radiation to the peritoneum.
The individual decided to stop all chemotherapy due to progression of the cancer and the adverse reactions previously experienced. The subject began oral squalamine in capsule form in August 2012. […] The dose of squalamine was raised to 100 mg/day in two divided doses. In October 2013, the tumor adjacent to the ureter was irradiated. […] The individual remains on squalamine 100 mg/day. They are in otherwise excellent health.

[6] = tested on: colon migrating motor complex (MMC); test: Colonic motility and intraluminal pressure in excised colon segment; design: species or system mouse; conditions: squalamine added to the colonic lumen
Protocol: A segment of colon was excised from a mouse, and one end was attached to a glass tube housing a pressure sensor. A video camera recorded the visible contractions of the segment. When squalamine was added to the colonic lumen, the frequency of contractions increased about 2 fold, representing coordinated peristaltic waves that move toward the rectum.

[7] = cited from earlier work; for oral bioavailability: animals (rodents; mice and dogs)

With squalamine the “physical examination of nodes” value ([1]; 50 mg daily from end of December 2013, end of February 2014) was “no palpable cervical nodes”, the lymph node size ([1]; 50 mg daily, by 1 week, dexamethsone from day 4) was “marked reduction in the size of the nodes” and the “clinical chemistry, polyclonal immunoglobulins” value ([1]; 50 mg daily, repeat study) was “complete resolution of the polyclonal gammopathy”. The rash cleared ([1]; one 50 mg capsule daily) was no more than 3 days, the bowel function ([1]; one 50 mg capsule daily, previously constipated) was “bowels began to move” and the “Squalamine Response: Clinical” value ([2]; 200 mg capsule at 10:30 A, light headedness 11 A-12:15, nausea 1:45, diarrhea 2 P, 2:20, 2:36, 3:15) was “Episodes of light headedness; also recorded: Episode of mild nausea; also recorded: Passage of watery diarrhea”. For the same substance, the “effect on the release of GLP-1 from the small intestine” value ([2]; 200 mg oral versus empty capsule, same subject) was “No significant effect”, the GLP-1 blood level ([2]; blood sample at 1:30, 200 mg capsule at 10:30 A, meal at 2 P) was 9 pM and the GLP-1 blood level ([2]; blood sample at 2:30, 200 mg capsule at 10:30 A, meal at 2 P) was 8 pM. The GLP-1 blood level ([2]; blood sample at 3:00, 200 mg capsule at 10:30 A, meal at 2 P) was 8 pM, the GLP-1 blood level ([2]; blood sample at 3:30, 200 mg capsule at 10:30 A, meal at 2 P) was 6 pM and the GLP-1 blood level ([2]; blood sample at 4:30, 200 mg capsule at 10:30 A, meal at 2 P) was 5 pM. For the same substance, the GLP-1 blood level ([2]; blood sample at 5:30, 200 mg capsule at 10:30 A, meal at 2 P) was 3 pM, the GLP-1 blood level ([2]; blood sample at 10 (before 200 mg capsule at 10:30 A), total immunoreactive GLP-1) was 6 pM and the GLP-1 blood level ([2]; blood sample at 11:30, 200 mg capsule at 10:30 A, meal at 2 P) was 4 pM. For the same substance, the GLP-1 blood level ([2]; blood sample at 11, 200 mg capsule at 10:30 A, meal at 2 P) was 5 pM, the GLP-1 blood level ([2]; blood sample at 12:30, 200 mg capsule at 10:30 A, meal at 2 P) was 10 pM and the “decrease of tumor mass by MRI” value ([3]; 100 mg from mid October 2013, with everolimus and temozolimide protocol, early December 2013) was “about 20%”. For the same substance, the “residual tumor volume relative to volume after the surgery/radiation” value ([3]; 100 mg, beginning of February 2014) was 60%, the “duration of burst of electrical activity / action potentials” value [4] was 10 min and the “PET/CT, metastases” value ([5]; 100 mg/day in two divided doses, February 2013 as printed) was “no additional metasteses were observed”. For the same substance, the tumor status ([5]; July 2013, before dose raised to 100 mg/day) was “a small tumor appeared adjacent to the right ureter, and a second attached to the left descending colon”, the PET/CT imaging ([5]; oral capsules from August 2012, by March 2013) was “no evidence of malignancy was visible” and the “increase of the frequency of contractions” value [6] was “about 2 fold”. The “peak pressure of MMC waves” value ([6]; versus before application) was “did not differ; also recorded: no apparent effect”, the “absorption from the gastrointestinal tract” value ([7]; extensive studies in animals) was “neither squalamine nor Aminosterol 1436 can be absorbed to any extent” and the oral bioavailability [7] was “low bioavailability”. For the same substance, the oral bioavailability ([7]; listed as squalamine lactate) was “poorly bioavailable orally” and the “absorption by the subcutaneous and intraperitoneal routes” value ([7]; rodents) was “well absorbed”.
